Measured values reported in patent US20060167062A1, “Enema preparation” (priority 2003, published 2006).

Tests used:
rat model of colitis [1] = assay: Rat model of colitis (TNBS-induced), incidence of diarrhea, oral administration; type: in vivo
Experimental: A rat model of colitis was prepared in accordance with the method by Morris et al. (Morris GP et al., Hapten-induced model of chronic inflammation and ulceration in the rat colon. Gasteroenterology, 96: 795-803, 1989). Specifically, the rats were fasted for approximately 24 hr and anesthetized with ether. A Teflon catheter (registered trade mark) was inserted into the lumen of the colon via the anus. The tip of the catheter was advanced to 8 cm from the anus, and 0.25 ml of TNBS solution (final concentration of 60 mg/mL in 50% ethanol) was injected into the colon. Rats were held in a vertical position for 30 seconds after TNBS injection (Day-0).
On the Day-B, the rats were anesthetized with ether, and sacrificed by exsanguination. The colon, from the end of the cecum to the anus, was excised, opened by a longitudinal incision, and the feces were macroscopically assessed at the excision of colons. When feces were not solid, it ws judged as diarrhea. Rats with no feces in the colon were excluded from diarrhea evaluation.

rat model of colitis [2] = assay: Rat model of colitis (TNBS-induced), incidence of diarrhea, enema (intra-rectal) administration; type: in vivo; conditions: for incidence of diarrhea: vehicle control 73.9%
Experimental: A rat model of colitis was prepared in accordance with the method by Morris et al. (Morris GP et al., Hapten-induced model of chronic inflammation and ulceration in the rat colon. Gasteroenterology, 96: 795-803, 1989). Specifically, the rats were fasted for approximately 24 hr and anesthetized with ether. A Teflon catheter (registered trade mark) was inserted into the lumen of the colon via the anus. The tip of the catheter was advanced to 8 cm from the anus, and 0.25 ml of TNBS solution (final concentration of 60 mg/mL in 50% ethanol) was injected into the colon. Rats were held in a vertical position for 30 seconds after TNBS injection (Day-0). One day after an injection of TNBS (Day-1), rats were randomly allocated to the four groups described below based on body weight using a stratified random sampling method. The groups were as follows: The pharmacologically active ingredient and its vehicle were delivered at 8 cm orad to the anal verge of conscious rats through a Teflon catheter (registered trade mark) inserted into the lumen of the colon via the anus. They were administered once daily in the morning for 7 consecutive days from Day-1. On the Day-B, the rats were anesthetized with ether, and sacrificed by exsanguination. The colon, from the end of the cecum to the anus, was excised, opened by a longitudinal incision, and the feces were macroscopically assessed at the excision of colons. When feces were not solid, it ws judged as diarrhea. Rats with no feces in the colon were excluded from diarrhea evaluation. The results of the incidence of diarrhea were expressed as the proportion of rats with diarrhea in each group. Statistical analysis was performed between the vehicle control group (Group A) and the groups administered with the pharmacologically active ingredient (Group B to D) using Fisher's exact test (two-sided) to which Bonferroni correction, which takes multiplicity into consideration, was applied. Statistical significance is defined as p<0.05.

Structure (SMILES): CCOc1ccc(-c2nc(-c3cccc(C(=O)O)n3)cs2)cc1OCC [pharmacologically active ingredient, 6-[2-(3,4-diethoxyphenyl)thiazol-4-yl]pyridine-2-carboxylic acid]
- incidence of diarrhea with oral administration (rat model of colitis [1]; 1 mg/kg/day): significantly effective
- incidence of diarrhea with oral administration (rat model of colitis [1]; lower than 1 mg/kg/day): no significant decrease
- incidence of diarrhea (rat model of colitis [2]; Group B, 0.1 mg/kg/day enema once daily for 7 consecutive days from Day-1): 33.3%
- incidence of diarrhea (rat model of colitis [2]; Group C, 0.3 mg/kg/day enema once daily for 7 consecutive days from Day-1): 20.0%
- incidence of diarrhea (rat model of colitis [2]; Group D, 1 mg/kg/day enema once daily for 7 consecutive days from Day-1): 20.0%
- incidence of diarrhea compared with the vehicle control group (rat model of colitis [2]; Groups B to D, 0.1 to 1 mg/kg/day enema, Fisher's exact test with Bonferroni correction, p<0.05): suppressed significantly
- amount with significant disorder-suppressing effect, intra-rectal relative to oral administration (rat model of colitis [2]; intra-rectal versus oral, rat model of colitis): one tenth
